This passage reports IC50 results from patent EP4667458A1 (Kanaph Therapeutics Inc., priority 2023, dated 2024).

The target of this experiment is T1, SOS1 (Homo sapiens, UniProt Q07889).
T1 construct: adding equal amounts of HIS-SOS1cat (160 nM; Cytoskeleton, US); His; purchased Cytoskeleton, US
T1 sequence (Q07889 564-1049 limits assumed): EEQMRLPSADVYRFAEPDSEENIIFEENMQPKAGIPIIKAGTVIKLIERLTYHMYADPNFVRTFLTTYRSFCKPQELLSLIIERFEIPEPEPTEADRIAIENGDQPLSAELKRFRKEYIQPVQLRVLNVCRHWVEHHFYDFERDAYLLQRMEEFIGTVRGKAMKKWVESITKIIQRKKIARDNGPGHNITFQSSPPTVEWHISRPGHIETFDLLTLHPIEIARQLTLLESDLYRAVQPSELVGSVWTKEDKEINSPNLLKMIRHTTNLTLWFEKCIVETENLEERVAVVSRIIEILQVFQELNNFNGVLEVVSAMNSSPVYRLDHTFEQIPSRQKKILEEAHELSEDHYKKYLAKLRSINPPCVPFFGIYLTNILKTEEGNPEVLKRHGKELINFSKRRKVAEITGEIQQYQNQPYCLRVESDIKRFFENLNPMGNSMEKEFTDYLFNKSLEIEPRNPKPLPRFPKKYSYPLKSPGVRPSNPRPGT
Description: SOS-catalyzed nucleotide exchange assay (HTRF, SOS1-mediated GTP loading of KRAS G12D). Conditions: GST-KRAS G12D, HIS-SOS1cat, EDA-GTP-DY-647P1; compound 128 pM to 10 µM; read-out: SOS-catalyzed nucleotide exchange assay (IC50 range, Grade). The experiment is classed as biochemical. The method, then: SOS1 activity was measured by SOS1-mediated GTP loading quantification of KRAS^G12D. GTP-loaded KRAS^G12D was detected by HTRF (Homogeneous Time Resolved Fluorescence) using anti-GST terbium (Cisbio, France) as a donor and a fluorescence GTP analogue (EDA-GTP-DY-647P1, [DY-647P1-labeled 2'/3'-O-(2-aminoethyl-carbamoyl)guanosine-5'-triphosphate (Jena bioscience, Germany)]) as an acceptor.
Assay buffer was composed of 10 mM HEPES pH 7.4, 150 mM NaCl, 5 mM MgCl2, 1 mM DTT, 0.05% BSA Fraction V pH 7.0 (Sigma) and 0.0025% (v/v) Igepal (Sigma). KRAS^G12D working solution was prepared by adding equal amounts of GST-KRAS^G12D (100 nM) and anti-GST-terbium (2 nM; Cisbio, France) to the assay buffer and incubating on ice for 10 minutes. SOS1cat working solution was prepared by adding equal amounts of HIS-SOS1cat (160 nM; Cytoskeleton, US) and EDA-GTP-DY-647P1 (200 nM; Jena bioscience, Germany) to the assay buffer. Control solution was prepared by adding equal volumes of EDA-GTP-DY-647P1 and the assay buffer for normalization control to exclude GEF-independent GTP loading and background signals. In order to induce a reaction, 5 µL of the SOS1cat working solution or the control solution was injected into each well. 5 µL of a compound having various concentrations from 128 pM to 10 µM was added to wells containing the SOS1cat working solution and incubated at room temperature for 10 minutes to bind to SOS1.
10 µL of the KRAS^G12D solution was added to each well and incubated for 30 minutes at room temperature while shaking. HTRF was measured using a Thermo Varioskan (excitation 334 nm, emission 665 nm). The IC50 of each inhibitor was analyzed using Graphad Prism.
The SOS1 inhibitory activity of the Example compounds measured by the above method was evaluated based on the following criteria, and the results are shown in Table 29.
For orientation: Time-resolved FRET reads energy transfer from a long-lived donor to a nearby acceptor.
Regarding `C[C@@H](NC(=O)c1ccc(=O)n(-c2ccccc2)n1)c1cccc(S(C)(=O)=O)c1` [Example 11, N-[(1R)-1-(3-methylsulfonylphenyl)ethyl]-6-oxo-1-phenyl-pyridazine-3-carboxamide], the IC50 lay within 1000 to 10000 nM.

Turning to `C[C@@H](NC(=O)c1ccc(=O)n(-c2ccccc2)n1)c1ccc(S(C)(=O)=O)cc1` [Example 12, N-[(1R)-1-(4-methylsulfonylphenyl)ethyl]-6-oxo-1-phenyl-pyridazine-3-carboxamide], the IC50 is above 10000 nM.

`C[C@@H](NC(=O)c1ccc(=O)n(-c2ccccc2)n1)c1cccc(Oc2ccccc2)c1` [Example 13, 6-oxo-N-[(1R)-1-(3-phenoxyphenyl)ethyl]-1-phenyl-pyridazine-3-carboxamide]: the IC50 is below 1000 nM.

For the molecule `C[C@@H](NC(=O)c1ccc(=O)n(-c2ccccc2)n1)c1cccc(C2CC2)c1` [Example 14, N-[(1R)-1-(3-cyclopropylphenyl)ethyl]-6-oxo-1-phenyl-pyridazine-3-carboxamide], the IC50 fell in the range of 1000 to 10000 nM.

As for `C[C@@H](NC(=O)c1ccc(=O)n(-c2ccccc2)n1)c1cccc(C(F)(F)F)c1` [Example 15, 6-oxo-1-phenyl-N-[(1R)-1-[3-(trifluoromethyl)phenyl]ethyl]pyridazine-3-carboxamide], the IC50 was below 1000 nM.

Take `C[C@@H](NC(=O)c1ccc(=O)n(-c2ccccc2)n1)c1cc(N)cc(C(F)(F)F)c1` [Example 16, N-[(1R)-1-[3-amino-5-(trifluoromethyl)phenyl]ethyl]-6-oxo-1-phenyl-pyridazine-3-carboxamide]: the IC50 is below 1000 nM.

For `C[C@@H](NC(=O)c1ccc(=O)n(C2CCOCC2)n1)c1cccc(Cl)c1` [Example 17, N-[(1R)-1-(3-chlorophenyl)ethyl]-6-oxo-1-tetrahydropyran-4-yl-pyridazine-3-carboxamide], the IC50 fell in the range of 1000 to 10000 nM.

`CC(=O)N1CCC(n2nc(C(=O)N[C@H](C)c3cccc(Cl)c3)ccc2=O)CC1` [Example 18, 1-(1-acetyl-4-piperidyl)-N-[(1R)-1-(3-chlorophenyl)ethyl]-6-oxo-pyridazine-3-carboxamide]: the IC50 was in the range of 1000 to 10000 nM.

As to `C[C@@H](NC(=O)c1ccc(=O)n(C2CCN(S(C)(=O)=O)CC2)n1)c1cccc(Cl)c1` [Example 19, (R)-N-(1-(3-chlorophenyl)ethyl)-1-(1-(methylsulfonyl)piperidin-4-yl)-6-oxo-1,6-dihydropyridazine-3-carboxamide], the IC50 fell in the range of 1000 to 10000 nM.

Consider `C[C@@H](NC(=O)c1ccc(=O)n(-c2ccccn2)n1)c1cc(N)cc(C(F)(F)F)c1` [Example 20, N-[(1R)-1-[3-amino-5-(trifluoromethyl)phenyl]ethyl]-6-oxo-1-(2-pyridyl)pyridazine-3-carboxamide], for which the IC50 is below 1000 nM.

As to `C[C@@H](NC(=O)c1ccc(=O)n(-c2ccncc2)n1)c1cc(N)cc(C(F)(F)F)c1` [Example 21, N-[(1R)-1-[3-amino-5-(trifluoromethyl)phenyl]ethyl]-6-oxo-1-(4-pyridyl)pyridazine-3-carboxamide], the 50% inhibitory concentration (IC50) was below 1000 nM.

Consider `Cc1ccc(-n2nc(C(=O)N[C@H](C)c3cc(N)cc(C(F)(F)F)c3)ccc2=O)s1` [Example 22, N-[(1R)-1-[3-amino-5-(trifluoromethyl)phenyl]ethyl]-1-(5-methyl-2-thienyl)-6-oxo-pyridazine-3-carboxamide], for which the IC50 was below 1000 nM.

Consider `COc1ccccc1-n1nc(C(=O)N[C@H](C)c2cc(N)cc(C(F)(F)F)c2)ccc1=O` [Example 23, N-[(1R)-1-[3-amino-5-(trifluoromethyl)phenyl]ethyl]-1-(2-methoxyphenyl)-6-oxo-pyridazine-3-carboxamide], for which the IC50 was below 1000 nM.

Consider `C[C@@H](NC(=O)c1ccc(=O)n(-c2cccc3ccccc23)n1)c1cc(N)cc(C(F)(F)F)c1` [Example 25, (R)-N-(1-(3-amino-5-(trifluoromethyl)phenyl)ethyl)-1-(naphthalen-1-yl)-6-oxo-1,6-dihydropyridazine-3-carboxamide], for which the IC50 is below 1000 nM.

On to `C[C@@H](NC(=O)c1ccc(=O)n(-c2cccnc2)n1)c1cc(N)cc(C(F)(F)F)c1` [Example 26, (R)-N-(1-(3-amino-5-(trifluoromethyl)phenyl)ethyl)-6-oxo-1-(pyridin-3-yl)-1,6-dihydropyridazine-3-carboxamide], for which the IC50 was below 1000 nM.

As for `Cc1cc(-n2nc(C(=O)N[C@H](C)c3cc(N)cc(C(F)(F)F)c3)ccc2=O)cs1` [Example 27, (R)-N-(1-(3-amino-5-(trifluoromethyl)phenyl)ethyl)-1-(5-methylthiophen-3-yl)-6-oxo-1,6-dihydropyridazine-3-carboxamide], the IC50 is below 1000 nM.

In the case of `C[C@@H](NC(=O)c1ccc(=O)n(-c2ccccc2S(C)(=O)=O)n1)c1cc(N)cc(C(F)(F)F)c1` [Example 28, (R)-N-(1-(3-amino-5-(trifluoromethyl)phenyl)ethyl)-1-(2-(methylsulfonyl)phenyl)-6-oxo-1,6-dihydropyridazine-3-carboxamide], the IC50 was above 10000 nM.

As to `C[C@@H](NC(=O)c1ccc(=O)n(-c2ccccc2C#N)n1)c1cc(N)cc(C(F)(F)F)c1` [Example 29, N-[(1R)-1-[3-amino-5-(trifluoromethyl)phenyl]ethyl]-1-(2-cyanophenyl)-6-oxo-pyridazine-3-carboxamide], the IC50 was below 1000 nM.

Regarding `COc1ccc(-n2nc(C(=O)N[C@H](C)c3cc(N)cc(C(F)(F)F)c3)ccc2=O)cc1` [Example 30, N-[(1R)-1-[3-amino-5-(trifluoromethyl)phenyl]ethyl]-1-(4-methoxyphenyl)-6-oxo-pyridazine-3-carboxamide], the IC50 was below 1000 nM.

Turning to `C[C@@H](NC(=O)c1ccc(=O)n(-c2cccc(C(=O)N(C)C)c2)n1)c1cc(N)cc(C(F)(F)F)c1` [Example 31, (R)-N-(1-(3-amino-5-(trifluoromethyl)phenyl)ethyl)-1-(3-(dimethylcarbamoyl)phenyl)-6-oxo-1,6-dihydropyridazine-3-carboxamide], the IC50 is below 1000 nM.

`C[C@@H](NC(=O)c1ccc(=O)n(-c2ccccc2Cl)n1)c1cc(N)cc(C(F)(F)F)c1` [Example 32, (R)-N-(1-(3-amino-5-(trifluoromethyl)phenyl)ethyl)-1-(2-chlorophenyl)-6-oxo-1,6-dihydropyridazine-3-carboxamide]: the IC50 is below 1000 nM.

As for `C[C@@H](NC(=O)c1ccc(=O)n(-c2ccccc2NS(C)(=O)=O)n1)c1cc(N)cc(C(F)(F)F)c1` [Example 33, N-[(1R)-1-[3-amino-5-(trifluoromethyl)phenyl]ethyl]-1-[2-(methanesulfonamido)phenyl]-6-oxo-pyridazine-3-carboxamide], the IC50 was below 1000 nM.

Consider `C[C@@H](NC(=O)c1ccc(=O)n(-c2cccc(NS(C)(=O)=O)c2)n1)c1cc(N)cc(C(F)(F)F)c1` [Example 34, (R)-N-(1-(3-amino-5-(trifluoromethyl)phenyl)ethyl)-1-(3-(methylsulfonamido)phenyl)-6-oxo-1,6-dihydropyridazine-3-carboxamide], for which the IC50 lay in the range of 1000 to 10000 nM.

Consider `CC(=O)Nc1cccc(-n2nc(C(=O)N[C@H](C)c3cc(N)cc(C(F)(F)F)c3)ccc2=O)c1` [Example 35, (R)-1-(3-acetamidophenyl)-N-(1-(3-amino-5-(trifluoromethyl)phenyl)ethyl)-6-oxo-1,6-dihydropyridazine-3-carboxamide], for which the IC50 is below 1000 nM.

`COc1ccc(-n2nc(C(=O)N[C@H](C)c3cc(N)cc(C(F)(F)F)c3)ccc2=O)cc1OC` [Example 36, N-[(1R)-1-[3-amino-5-(trifluoromethyl)phenyl]ethyl]-1-(3,4-dimethoxyphenyl)-6-oxo-pyridazine-3-carboxamide]: the IC50 is below 1000 nM.

With `C[C@@H](NC(=O)c1ccc(=O)n(-c2cccc(S(C)(=O)=O)c2)n1)c1cc(N)cc(C(F)(F)F)c1` [Example 37, N-[(1R)-1-[3-amino-5-(trifluoromethyl)phenyl]ethyl]-1-(3-methylsulfonylphenyl)-6-oxo-pyridazine-3-carboxamide], the IC50 was below 1000 nM.

Broadly, the IC50 is the concentration needed to halve the response being measured.
